This is an account of results in patent US7074334B2, “Method for determining the binding behavior of ligands which specifically bind to target molecules” (priority 2001, dated 2006).

“And” between values parts separate entries of the source, which are not always exact repeats. Equal values may be shown once.

The target of one assay is T1, D2-type receptors (Sus scrofa, UniProt F1SM69).
T1 construct: As native material which contains both D1 and D2 receptors in sufficient amount; from tissue; host or cells: porcine brain striatum, membrane fraction
The assay can be described thus: MS binding assay with marker spiroperidol in striatal membrane fraction, unbound marker quantified. More on the design: species or system porcine.

Another assay deals with D1-type receptors (Sus scrofa, UniProt P50130). The settings on record: test substance 1 μmol/L.
D1-type receptors, sequence (P50130 whole entry): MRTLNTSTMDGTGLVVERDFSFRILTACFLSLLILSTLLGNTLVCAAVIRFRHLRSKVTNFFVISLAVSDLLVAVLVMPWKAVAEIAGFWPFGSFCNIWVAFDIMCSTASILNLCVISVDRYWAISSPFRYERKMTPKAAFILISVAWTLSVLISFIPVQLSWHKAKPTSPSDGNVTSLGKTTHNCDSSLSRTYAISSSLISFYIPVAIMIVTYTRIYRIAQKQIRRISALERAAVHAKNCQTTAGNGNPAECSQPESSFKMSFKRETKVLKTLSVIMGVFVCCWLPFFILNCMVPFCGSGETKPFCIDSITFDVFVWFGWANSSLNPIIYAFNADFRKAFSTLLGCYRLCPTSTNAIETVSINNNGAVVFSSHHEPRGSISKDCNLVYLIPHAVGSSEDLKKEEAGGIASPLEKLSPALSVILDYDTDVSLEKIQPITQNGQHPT

T1 sequence (F1SM69 1-443): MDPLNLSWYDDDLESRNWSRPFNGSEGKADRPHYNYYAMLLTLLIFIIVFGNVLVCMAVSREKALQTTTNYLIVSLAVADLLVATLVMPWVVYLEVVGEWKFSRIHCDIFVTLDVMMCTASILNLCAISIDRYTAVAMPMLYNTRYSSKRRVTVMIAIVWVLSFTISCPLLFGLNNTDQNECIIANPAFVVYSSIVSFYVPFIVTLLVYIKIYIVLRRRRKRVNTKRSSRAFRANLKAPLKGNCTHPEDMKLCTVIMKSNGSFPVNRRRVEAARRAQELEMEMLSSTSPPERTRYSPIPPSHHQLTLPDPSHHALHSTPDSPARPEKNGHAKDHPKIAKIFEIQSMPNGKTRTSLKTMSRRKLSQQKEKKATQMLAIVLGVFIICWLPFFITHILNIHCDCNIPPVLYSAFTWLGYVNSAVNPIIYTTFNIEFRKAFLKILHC

Regarding `COC(=O)c1ccccc1` [methyl benzoate], the “inhibition of the specific binding of the marker spiroperidol to D2-type receptors” value on D2-type receptors (test substance 1 μmol/L) is given as “not capable of inhibiting”. At D1-type receptors, the “inhibition of the specific binding of the marker SCH23390 to D1-type receptors” value is given as “none is capable”.
For `O=C(CCCN1CCC2(CC1)C(=O)NCN2c1ccccc1)c1ccc(F)cc1` [spiroperidol], on D2-type receptors, the “concentration of unbound marker spiroperidol” value is 1.93 nmol/L and 2.75 nmol/L and 2.78 nmol/L and 2.29 nmol/L and 1.89 nmol/L.
